Where two headings read alike, the source gives them in different places.
Experiments:
[1] = Plasma radiometabolite analysis of [18F]B-23; assay type: in vivo, rat
Protocol: (§1) The metabolic stability of the tracer was studied in normal rats by determination of the relative amounts of parent tracer and radiometabolites in plasma and brain at 2 min and 10 min p.i. of the tracer. […] (n=1), blood was collected in lithium heparin containing tubes (4.5 mL LH PST tubes; BD vacutainer, BD, Franklin Lakes, USA) and stored on ice. Brain was dissected and rinsed with saline (decapitation was preferred since it was difficult to have the rat perfused already at 2 min p.i.). For the 10 min timepoint, rats (n=1) were injected with about 37 MBq of tracer and sacrificed at 10 min p.i by administering an overdose of Nembutal (CEVA Sante Animale, 200 mg/kg intraperitoneal). The rats were perfused by injection of saline into the left ventricle until the liver turned pale. During perfusion, blood was collected and stored on ice. Brain was isolated.
For the plasma radiometabolite analysis, the blood was centrifugated for 10 min at 3000 rpm to separate the plasma. A volume of about 0.1 mL of plasma sample was isolated and spiked with about 10 μL of authentic non-radioactive reference material (1 mg/mL) for identification. The plasma was then injected onto an HPLC system consisting of a Chromolith Performance column (C18, 3 mm×100 mm, Merck) that was eluted with mixtures of 0.05 M NaOAc pH 5.5 (solvent A) and acetonitrile (solvent B). The following method was used for the analysis: isocratic elution with 100% A for 4 min at a flow rate of 0.5 mL/min, then linear gradient to 90% B by 14 min at a flow rate of 1 mL/min, and isocratic elution with a mixture of 10% A and 90% B at a flow rate of 1 mL/min until 17 min. After passing through an in-line UV detector (254 nm) and over a 3 in. NaI(Tl) scintillation detector connected to a single channel analyzer (Gabi box, Raytest, Straubenhardt Germany), the HPLC eluate was collected per minute using an automatic fraction collector. The radioactivity in all fractions was measured using an automated gamma counter. The peak corresponding to the intact tracer eluted at ˜11 min. Polar radiometabolite(s) were eluting from 1 to 3 min. Slightly more polar radiometabolites (relatively to the polarity of the intact tracer) were eluting just before the intact tracer. Faster metabolisation is observed in plasma compared to brain. At 2 min p.i., about 70% of the recovered radioactivity was present as intact tracer. Two more polar radiometabolites (M1, M3) were observed of which one (M3) was closely eluting to the intact tracer. At 10 min p.i., the presence of a large amount of a third polar metabolite (M2, also closely eluting to the parent compound) was observed which accounted for about 60% of the recovered radioactivity. At 10 min p.i., only ˜20% of the recovered radioactivity was still present as intact tracer.

[2] = Biodistribution study of [18F]B-23; settings: mean ± SD; for % ID Blood / % ID Carcass / % ID Cerebellum / % ID Cerebrum total / % ID Cortex / % ID Heart / % ID Hippocampus / % ID Intestines / % ID Kidneys / % ID Liver / % ID Lungs / % ID Rest of cerebrum / % ID Spleen + Pancreas / % ID Stomach / % ID Striatum / % ID Urine: normal rats, n=3; for SUV Blood / SUV Cerebellum / SUV Cortex / SUV Hippocampus / SUV Rest of cerebrum / SUV Striatum: n = 3
Protocol: (§2) The biodistribution study was carried out in male Wistar rats (body weight 320-370 g) at 2 min, 10 min and 30 min post injection (p.i.) (n=3/time point). […] Blood and major organs were collected in tared tubes and weighed. The radioactivity in blood, organs and other body parts was measured using an automated gamma counter. The distribution of radioactivity in different parts of the body at different time points p.i. of the tracer was calculated and expressed as percentage of injected dose (% ID), and as standardized uptake values (SUV) for the selected organs. % ID is calculated as counts per minute (cpm) in organ/total cpm recovered. SUVs are calculated as (radioactivity in cpm in organ/weight of the organ in g)/(total counts recovered/body weight in g). For calculation of total radioactivity in blood, blood mass was assumed to be 7% of the body mass.

[3] = Brain radiometabolite analysis of [18F]B-23; assay type: in vivo, rat
Protocol: as §1
For the brain radiometabolite analysis, cerebrum and cerebellum were separated and homogenized in 3 mL and 2 mL of acetonitrile respectively, for about 3 min. A volume of 1 mL of this homogenate was diluted with an equal volume of water and 1 mL of the supernatant was filtered through a 0.22 μm filter (Millipore, Bedford, USA). About 0.5 mL of the filtrate was diluted with 0.1 mL of water and spiked with 10 μL of authentic reference material (1 mg/mL) for identification. A volume of 0.5 mL of the homogenate extracts were injected onto an HPLC system consisting of an analytical XBridge column (C18, 3.5 μm, 3 mm×100 mm, Waters) eluted with a mixture of 0.05 M sodium acetate (pH 5.5) and CH3CN (76:24 v/v) at a flow rate of 0.8 mL/min. The HPLC eluate was collected as 0.8-mL fractions (fraction collection per minute) after passing through the UV detector (254 nm), and radioactivity in the fractions was measured using an automated gamma counter. The peak corresponding to the intact tracer eluted around 10 min, the polar radiometabolite(s) around 5 min.

[4] = male, Wistar, rat, in vivo
Protocol: as §2

## Cc1nc2ccc(CN3CCOCC3)cc2n2c(-c3c([18F])cccc3Cl)nnc12 [[18F]B-23, 1-[2-Chloro-6-(^18F)fluorophenyl]-4-methyl-8-(morpholin-4-ylmethyl)[1,2,4]triazolo[4,3-a]quinoxaline]
[1]; rat plasma, 2 min p.i., n=1
  % in plasma Intact tracer: 70%
  % in plasma Polar metabolite M1: 16%
  % in plasma Polar metabolite M3: 14%
[1]; rat plasma, 10 min p.i., n=1
  % in plasma Intact tracer: 18%
  % in plasma Polar metabolite M1: 10%
  % in plasma Polar metabolite M2: 61%
  % in plasma Polar metabolite M3: 12%
[2]; 2 min p.i.
  % ID Blood: 6.69 ± 0.4 % ID
  % ID Carcass: 42.54 ± 4.8 % ID
  % ID Cerebellum: 0.096 ± 0.022 % ID
  % ID Cerebrum total: 1.030 ± 0.130 % ID
  % ID Cortex: 0.086 ± 0.017 % ID
  % ID Heart: 0.81 ± 0.0 % ID
  % ID Hippocampus: 0.036 ± 0.002 % ID
  % ID Intestines: 9.51 ± 1.1 % ID
  % ID Kidneys: 4.68 ± 0.7 % ID
  % ID Liver: 30.79 ± 4.6 % ID
  % ID Lungs: 2.27 ± 1.2 % ID
  % ID Rest of cerebrum: 0.809 ± 0.130 % ID
  % ID Spleen + Pancreas: 1.57 ± 0.1 % ID
  % ID Stomach: 2.44 ± 0.3 % ID
  % ID Striatum: 0.098 ± 0.010 % ID
  % ID Urine: 0.25 ± 0.1 % ID
[2]; 10 min p.i.
  % ID Blood: 6.27 ± 0.5 % ID
  % ID Carcass: 37.39 ± 4.9 % ID
  % ID Cerebellum: 0.020 ± 0.002 % ID
  % ID Cerebrum total: 0.212 ± 0.006 % ID
  % ID Cortex: 0.016 ± 0.004 % ID
  % ID Heart: 0.23 ± 0.0 % ID
  % ID Hippocampus: 0.006 ± 0.001 % ID
  % ID Intestines: 10.97 ± 1.5 % ID
  % ID Kidneys: 6.02 ± 1.2 % ID
  % ID Liver: 37.83 ± 3.3 % ID
  % ID Lungs: 0.68 ± 0.1 % ID
  % ID Rest of cerebrum: 0.159 ± 0.006 % ID
  % ID Spleen + Pancreas: 0.42 ± 0.0 % ID
  % ID Stomach: 2.77 ± 0.8 % ID
  % ID Striatum: 0.031 ± 0.005 % ID
  % ID Urine: 0.61 ± 0.5 % ID
[2]; 30 min p.i.
  % ID Blood: 4.10 ± 0.6 % ID
  % ID Carcass: 23.75 ± 1.9 % ID
  % ID Cerebellum: 0.011 ± 0.005 % ID
  % ID Cerebrum total: 0.084 ± 0.026 % ID
  % ID Cortex: 0.006 ± 0.003 % ID
  % ID Heart: 0.12 ± 0.0 % ID
  % ID Hippocampus: 0.003 ± 0.001 % ID
  % ID Intestines: 19.75 ± 5.6 % ID
  % ID Kidneys: 8.24 ± 0.3 % ID
  % ID Liver: 29.30 ± 4.8 % ID
  % ID Lungs: 0.46 ± 0.0 % ID
  % ID Rest of cerebrum: 0.064 ± 0.024 % ID
  % ID Spleen + Pancreas: 0.32 ± 0.1 % ID
  % ID Stomach: 4.81 ± 0.3 % ID
  % ID Striatum: 0.012 ± 0.001 % ID
  % ID Urine: 10.80 ± 1.2 % ID

## Cc1nc2ccc(CN3CCOCC3)cc2n2c(-c3c([18F])cccc3Cl)nnc12 [[^18F]B-23, 1-(2-Chloro-6-[^18F]fluorophenyl)-4-methyl-8-(morpholin-4-ylmethyl)[1,2,4]triazolo[4,3-a]quinoxaline]
[1]; 2 and 10 min p.i.
  apolar radiometabolites in plasma: No apolar radiometabolites were detected
[1]; 2 min p.i., n=1
  recovered radioactivity present as intact tracer in plasma: about 70%
[1]; 10 min p.i., n=1
  recovered radioactivity present as intact tracer in plasma: ~20%
[3]; 2 and 10 min p.i.
  apolar radiometabolites in brain: No apolar radiometabolites were detected
[3]; 2 min p.i., n=1
  intact tracer in cerebrum and cerebellum: almost all of the recovered radioactivity in cerebrum and in cerebellum was present as intact tracer
[3]; 10 min p.i., n=1
  % of intact tracer in cerebellum: 82%
[4]; 2 min
  % of the ID in the cerebellum: ~0.1%
  % of the ID in the cerebrum: ~1.0%
  % of the injected dose present in the blood: about 6.7%
  total brain uptake of the tracer (% ID): ~1.2%
[4]; 10 min
  % ID in the brain: 0.2%
[4]; 30 min
  % ID in the brain: 0.1 % ID
  % ID in the urine and the kidneys: 19 % ID
  % of ID present in the liver and intestines: 49%
  % of the injected dose present in the blood: 4.1%
[2]; 2 min p.i.
  SUV Blood: 0.96 ± 0.05
  SUV Cerebellum: 1.22 ± 0.23
  SUV Cortex: 2.36 ± 0.48
  SUV Hippocampus: 1.87 ± 0.22
  SUV Rest of cerebrum: 2.63 ± 0.41
  SUV Striatum: 4.36 ± 0.42
[2]; 10 min p.i.
  SUV Blood: 0.90 ± 0.08
  SUV Cerebellum: 0.27 ± 0.02
  SUV Cortex: 0.53 ± 0.02
  SUV Hippocampus: 0.33 ± 0.04
  SUV Rest of cerebrum: 0.57 ± 0.02
  SUV Striatum: 1.77 ± 0.08
[2]; 30 min p.i.
  SUV Blood: 0.59 ± 0.08
  SUV Cerebellum: 0.12 ± 0.04
  SUV Cortex: 0.15 ± 0.04
  SUV Hippocampus: 0.14 ± 0.04
  SUV Rest of cerebrum: 0.22 ± 0.08
  SUV Striatum: 0.61 ± 0.20

— US10604523B2, “1-aryl-4-methyl-[1,2,4]triazolo[4,3-a]quinoxaline derivatives” (Janssen Pharmaceutica NV, priority 2011, dated 2020)
